Assay results from ChEMBL document CHEMBL1201862, “PubChem BioAssay data set” (2004).
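The compound was tested at five concentrations on cells cultured in 96-well plates, with a 48-hour exposure period. At the GI50, growth is halved.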 The source made the active and inactive calls. Rule as the data show it: active = GI50 up to about 1.1 µM and inactive = higher.

Tests used:
Test in all cases: NCI-60 cell line screen, 48 h
ACHN = system: ACHN
NCI-H460 = system: NCI-H460
Malme-3M = system: Malme-3M
LXFL 529 = system: LXFL 529
HT-29 = system: HT-29
A498 = system: A498
KM12 = system: KM12
UACC-62 = system: UACC-62
M14 = system: M14
A549 = system: A549
RXF 631 = system: RXF 631
NCI-H23 = system: NCI-H23
HL-60 = system: HL-60
SN12C = system: SN12C
NCI-H522 = system: NCI-H522
SK-MEL-28 = system: SK-MEL-28
SF-539 = system: SF-539
SNB-75 = system: SNB-75
SW-620 = system: SW-620
LOX IMVI = system: LOX IMVI
NCI-H226 = system: NCI-H226
COLO 205 = system: COLO 205
HOP-92 = system: HOP-92
OVCAR-4 = system: OVCAR-4
DLD-1 = system: DLD-1
HCT-15 = system: HCT-15
M19-MEL = system: M19-MEL
OVCAR-5 = system: OVCAR-5
HCT-116 = system: HCT-116
HOP-18 = system: HOP-18
K562 = system: K562
EKVX = system: EKVX
CCRF-CEM = system: CCRF-CEM
OVCAR-8 = system: OVCAR-8
SNB-19 = system: SNB-19
SK-OV-3 = system: SK-OV-3
HOP-62 = system: HOP-62
SF-295 = system: SF-295
HCC 2998 = system: HCC 2998
TK-10 = system: TK-10
KM-20L2 = system: KM-20L2
UACC-257 = system: UACC-257
RXF 393 = system: RXF 393
XF498 = system: XF498
IGROV-1 = system: IGROV-1
SK-MEL-5 = system: SK-MEL-5
786-0 = system: 786-0
CAKI-1 = system: CAKI-1
U-251 = system: U-251
SF-268 = system: SF-268
OVCAR-3 = system: OVCAR-3
DMS-114 = system: DMS-114
UO-31 = system: UO-31
RPMI-8226 = system: RPMI-8226
MOLT-4 = system: MOLT-4
SK-MEL-2 = system: SK-MEL-2
DMS-273 = system: DMS-273
SR = system: SR

COc1cc(C(=O)C/C(CCC(=O)Nc2ccc(Cl)cc2Cl)=N/NC(=O)C(=O)NN)ccc1O
GI50 (ACHN): > 100 µM (inactive)
GI50 (NCI-H460): > 100 µM (inactive)
GI50 (Malme-3M): > 100 µM (inactive)
GI50 (LXFL 529): > 100 µM (inactive)
GI50 (HT-29): > 100 µM (inactive)
GI50 (A498): > 100 µM (inactive)
GI50 (KM12): > 100 µM (inactive)
GI50 (UACC-62): 53.8 µM (inactive)
GI50 (M14): > 100 µM (inactive)
GI50 (A549): > 100 µM (inactive)
GI50 (RXF 631): > 100 µM (inactive)
GI50 (NCI-H23): > 100 µM (inactive)
GI50 (HL-60): > 100 µM (inactive)
GI50 (SN12C): > 100 µM (inactive)
GI50 (NCI-H522): > 100 µM (inactive)
GI50 (SK-MEL-28): > 100 µM (inactive)
GI50 (SF-539): > 100 µM (inactive)
GI50 (SNB-75): > 100 µM (inactive)
GI50 (SW-620): > 100 µM (inactive)
GI50 (LOX IMVI): 43.3 µM (inactive)
GI50 (NCI-H226): > 100 µM (inactive)
GI50 (COLO 205): > 100 µM (inactive)
GI50 (HOP-92): > 100 µM (inactive)
GI50 (OVCAR-4): > 100 µM (inactive)
GI50 (DLD-1): > 100 µM (inactive)
GI50 (HCT-15): > 100 µM
GI50 (M19-MEL): > 100 µM (inactive)
GI50 (OVCAR-5): > 100 µM (inactive)
GI50 (HCT-116): > 100 µM (inactive)
GI50 (HOP-18): > 100 µM (inactive)
GI50 (K562): 28.1 µM (inactive)
GI50 (EKVX): 97.7 µM (inactive)
GI50 (CCRF-CEM): > 100 µM (inactive)
GI50 (OVCAR-8): > 100 µM (inactive)
GI50 (SNB-19): > 100 µM (inactive)
GI50 (SK-OV-3): > 100 µM (inactive)
GI50 (HOP-62): > 100 µM (inactive)
GI50 (SF-295): > 100 µM (inactive)
GI50 (HCC 2998): > 100 µM (inactive)
GI50 (TK-10): > 100 µM (inactive)
GI50 (KM-20L2): > 100 µM (inactive)
GI50 (UACC-257): > 100 µM (inactive)
GI50 (RXF 393): > 100 µM (inactive)
GI50 (XF498): > 100 µM (inactive)
GI50 (IGROV-1): > 100 µM (inactive)
GI50 (SK-MEL-5): > 100 µM (inactive)
GI50 (786-0): > 100 µM (inactive)
GI50 (CAKI-1): 46.2 µM (inactive)
GI50 (U-251): > 100 µM (inactive)
GI50 (SF-268): > 100 µM (inactive)
GI50 (OVCAR-3): > 100 µM (inactive)
GI50 (DMS-114): > 100 µM (inactive)
GI50 (UO-31): > 100 µM (inactive)

CCC12C=CCN(CCc3c([nH]c4ccccc34)/C=C\1)C2 (centres undefined)
GI50 (ACHN): > 100 µM (inactive)
GI50 (NCI-H460): > 100 µM (inactive)
GI50 (Malme-3M): > 100 µM (inactive)
GI50 (LXFL 529): > 100 µM (inactive)
GI50 (HT-29): > 100 µM (inactive)
GI50 (A498): > 100 µM (inactive)
GI50 (RPMI-8226): > 100 µM (inactive)
GI50 (KM12): > 100 µM (inactive)
GI50 (UACC-62): > 100 µM (inactive)
GI50 (M14): > 100 µM (inactive)
GI50 (MOLT-4): > 100 µM (inactive)
GI50 (A549): > 100 µM (inactive)
GI50 (RXF 631): > 100 µM (inactive)
GI50 (NCI-H23): > 100 µM (inactive)
GI50 (SK-MEL-2): > 100 µM (inactive)
GI50 (HL-60): > 100 µM (inactive)
GI50 (SN12C): > 100 µM (inactive)
GI50 (NCI-H522): > 100 µM (inactive)
GI50 (SF-539): > 100 µM (inactive)
GI50 (SNB-75): 44.6 µM (inactive)
GI50 (SW-620): > 100 µM (inactive)
GI50 (LOX IMVI): > 100 µM (inactive)
GI50 (NCI-H226): > 100 µM (inactive)
GI50 (COLO 205): > 100 µM (inactive)
GI50 (OVCAR-4): > 100 µM (inactive)
GI50 (DLD-1): > 10 µM (inactive)
GI50 (HCT-15): > 100 µM
GI50 (M19-MEL): > 100 µM (inactive)
GI50 (HCT-116): > 100 µM (inactive)
GI50 (HOP-18): > 100 µM (inactive)
GI50 (K562): > 100 µM (inactive)
GI50 (DMS-273): > 100 µM (inactive)
GI50 (EKVX): > 100 µM (inactive)
GI50 (CCRF-CEM): > 100 µM (inactive)
GI50 (SNB-19): > 100 µM (inactive)
GI50 (HOP-62): > 100 µM (inactive)
GI50 (SF-295): > 100 µM (inactive)
GI50 (HCC 2998): > 100 µM (inactive)
GI50 (KM-20L2): > 100 µM (inactive)
GI50 (UACC-257): > 100 µM (inactive)
GI50 (SR): > 100 µM (inactive)
GI50 (XF498): > 100 µM (inactive)
GI50 (IGROV-1): > 100 µM (inactive)
GI50 (SK-MEL-5): > 100 µM (inactive)
GI50 (786-0): > 100 µM (inactive)
GI50 (CAKI-1): > 100 µM (inactive)
GI50 (U-251): > 100 µM (inactive)
GI50 (SF-268): > 100 µM (inactive)
GI50 (OVCAR-3): > 100 µM (inactive)
GI50 (DMS-114): > 100 µM (inactive)
GI50 (UO-31): > 100 µM (inactive)
